Reference: paper PMC9886266, “New [1,2,4]triazolo[4,3-c]quinazolines as intercalative Topo II inhibitors: Design, synthesis, biological evaluation, and in silico studies” (PLOS ONE, 2023)

Key:
HCT-116 cell line = test: MTT anti-proliferative assay, HCT-116; format: cell-based; conditions: Homo sapiens, 48 h, three independent experiments, read-out: In vitro cytotoxicity IC50, HCT-116
Procedure: In vitro antiproliferative activities of the target molecules were assessed against two human cancer cell lines namely, hepatocellular carcinoma (HepG2) and colorectal carcinoma (HCT-116) using MTT assay.
The anti-proliferative activity of the synthesized compounds was assessed using MTT assay protocol. A panel of human cancer cell lines namely, colorectal carcinoma (HCT-116) and hepatocellular carcinoma (HepG2) was used in this test. Doxorubicin was used as a positive control. The cell lines were got from ATCC (American Type Culture Collection) via the Holding company for biological products and vaccines (VACSERA, Cairo, Egypt). The anti-proliferative activities of the tested compounds were determined quantitatively as follows:
At first, the cells were cultured into a medium of RPMI-1640 with 10% fetal bovine serum. Then, two different antibiotics were added at 37°C in a 5% CO2 incubator: penicillin (100 units/mL) and streptomycin (100 μg/mL). Next, we seeded the cells in a 96-well plate by a density of 1.0 x 10^4 cells / well at 37°C for 48 h under 5% CO2. The synthesized compounds with different concentrations were applied into the cell lines and incubated for 48 h. After 48 h, 20 μl of MTT solution (5mg/mL) was added and incubated for 4 h. Then, DMSO (100 μl) was added into each well to dissolve the formed purple formazan. After that, a colorimetric assay was measured and recorded at absorbance of 570 nm using a plate reader (EXL 800, USA). The relative cell viability in percentage was calculated as (A570 of treated samples/A570 of untreated sample) X 100.
S2: Biological evaluation
S2.1. In vitro cytotoxic activity
The anti-proliferative activity of the synthesized compounds was assessed using MTT assay protocol. A panel of human cancer cell lines namely, colorectal carcinoma (HCT-116) and hepatocellular carcinoma (HepG2) was used in this test. As we targeted the DNA and Topo […]
cell lines were got from ATCC (American Type Culture Collection) via the Holding company for biological products and vaccines (VACSERA, Cairo, Egypt). The anti -proliferative activities of the tested compounds were determined quantitatively as follows:
At first, the cells were cultured into a medium of RPMI-1640 with 10% fetal bovine serum.
Then, two different antibiotics were added at 37 ᵒC in a 5% CO2 incubator: penicillin (100 units/mL) and streptomycin (100 µg/mL). Next, we seeded the cells in a 96 -well plate by a density of 1.0 x 10^4 cells / well at 37 ᵒC for 48 h under 5% CO2. The synthesized compounds with different concentrations were applied into the cell lines and incubated for 48 h. After 48 h, 20 µl of MTT solution (5mg/mL) was added and incubated for 4 h. Then, DMSO (100 µl) was added into each well to dissolve the formed purple formazan. After that, a colorimetric assay was measured and recorded at absorbance of 570 nm using a plate reader (EXL 800, USA). The relative cell viability in percentage was calculated as (A570 of treated samples/A570 of untreated sample) X 100. […]

HCT-116 cells = test: Flow cytometry cell cycle analysis (propidium iodide); format: cell-based, human; conditions: HCT-116, 2.44 μM, 48 h, mean ± SEM

SMILES: CCCNc1nc2ccccc2c2nnc(C(F)(F)F)n12 [Compound 16, N-Propyl-3-(trifluoromethyl)-[1,2,4]triazolo[4,3-c]quinazolin-5-amine]
- IC50 (HCT-116 cell line): 2.44 ± 0.1 µM
- Cell cycle distribution % G2/M (HCT-116 cells): 36.89 ± 1.81 %
- Cell cycle distribution %G1 (HCT-116 cells): 19.05 ± 1.38 %
- Cell cycle distribution %S (HCT-116 cells): 42.76 ± 2.48 %
- Cell cycle distribution %Sub-G1 (HCT-116 cells): 1.30 ± 0.18%
